ChEMBL document CHEMBL3872235, “Synthesis and biological evaluation of allylated mono-carbonyl analogues of curcumin (MACs) as anti-cancer agents for cholangiocarcinoma” (Bioorg Med Chem Lett, 2016)

Experiments:
[1] = Cytotoxicity against RBEC assessed as cell survival at 20 uM after 24 hrs by MTT assay; assay type: toxicity; details: rat, RBEC cells; read-out: Survival
[2] = Cytotoxicity against RBEC assessed as decrease in cell viability after 24 hrs by MTT assay; assay type: toxicity; details: rat, RBEC cells
[3] = Drug degradation in phosphate buffer at pH 7.4 measured up to 25 mins by UV-Vis spectral analysis; assay type: physicochemical; details: for Stability: buffer, pH 7.4, 25 min
[4] = Decrease in Cdc2 expression in RBEC at 20 uM after 24 hrs by Western blot analysis; details: rat
[5] = Cell cycle arrest in RBEC cells assessed as accumulation at G2/M phase at 20 uM after 24 hrs by flow cytometric analysis; assay type: cell-based; details: rat
[6] = Induction of apoptosis in HUCCA cells at 20 uM after 24 hrs by annexin V/propidium iodide staining based flow cytometry (reference value: 9.6%); assay type: functional, Homo sapiens
[7] = Induction of apoptosis in human QBC939 cells at 20 uM after 24 hrs by annexin V/propidium iodide staining based flow cytometry (reference value: 2.21%); assay type: functional
[8] = Increase in p53 expression in RBEC at 20 uM after 24 hrs by Western blot analysis; assay type: ADME; details: rat
[9] = Induction of apoptosis in RBEC at 20 uM after 24 hrs by annexin V/propidium iodide staining based flow cytometry (reference value: 2.3%); details: rat
[10] = Cytotoxicity against HUCCA cells assessed as decrease in cell viability after 24 hrs by MTT assay; assay type: functional, cell-based; details: Homo sapiens
[11] = Cytotoxicity against human QBC939 cells assessed as decrease in cell viability after 24 hrs by MTT assay; assay type: functional, cell-based; details: QBC939, 24 h
QBC939 [12] = assay: Increase in p53 expression in human QBC939 cells after 24 hrs by Western blot analysis; assay type: functional, cell-based
HUCCA [13] = assay: Induction of apoptosis in HUCCA cells assessed as decrease in PARP cleavage after 24 hrs by Western blot analysis; assay type: functional, cell-based; details: Homo sapiens
[14] = Induction of apoptosis in RBEC at 7.5 uM after 24 hrs by annexin V/propidium iodide staining based flow cytometry (reference value: 2.3%); details: rat
[15] = Induction of apoptosis in HUCCA cells at 5 uM after 24 hrs by annexin V/propidium iodide staining based flow cytometry (reference value: 9.6%); assay type: functional, Homo sapiens
[16] = Induction of apoptosis in RBEC at 10 uM after 24 hrs by annexin V/propidium iodide staining based flow cytometry (reference value: 2.3%); details: rat
[17] = Decrease in Cdc2 expression in RBEC after 24 hrs by Western blot analysis; assay type: ADME; details: rat
[18] = Induction of apoptosis in HUCCA cells at 7.5 uM after 24 hrs by annexin V/propidium iodide staining based flow cytometry (reference value: 9.6%); assay type: functional, Homo sapiens
[19] = Induction of apoptosis in RBEC assessed as increase in Bax protein expression after 24 hrs by Western blot analysis; details: rat
QBC939 [20] = assay: Induction of apoptosis in human QBC939 cells assessed as decrease in Bcl-2 protein expression after 24 hrs by Western blot analysis; assay type: functional, cell-based
QBC939 [21] = assay: Induction of apoptosis in human QBC939 cells assessed as increase in Bax protein expression after 24 hrs by Western blot analysis; assay type: functional, cell-based
HUCCA [22] = assay: Induction of apoptosis in HUCCA cells assessed as decrease in Bcl-2 protein expression after 24 hrs by Western blot analysis; assay type: functional, cell-based; details: Homo sapiens
[23] = Cell cycle arrest in HUCCA cells assessed as accumulation at G2/M phase after 24 hrs by flow cytometric analysis; assay type: functional, cell-based; details: Homo sapiens
[24] = Cytotoxicity against HIBEC assessed as decrease in cell viability after 24 hrs by MTT assay; assay type: toxicity; details: human, HIBEC cells
[25] = Induction of apoptosis in RBEC assessed as decrease in Bcl-2 protein expression after 24 hrs by Western blot analysis; details: rat
[26] = Induction of apoptosis in HUCCA cells at 10 uM after 24 hrs by annexin V/propidium iodide staining based flow cytometry (reference value: 9.6%); assay type: functional, Homo sapiens
QBC939 [27] = assay: Induction of apoptosis in human QBC939 cells after 24 hrs by annexin V/propidium iodide staining based flow cytometry; assay type: functional, cell-based
HUCCA [28] = assay: Increase in p53 expression in HUCCA cells after 24 hrs by Western blot analysis; assay type: functional, cell-based; details: Homo sapiens
[29] = Induction of apoptosis in RBEC after 24 hrs by annexin V/propidium iodide staining based flow cytometry; details: rat
HUCCA [30] = assay: Induction of apoptosis in HUCCA cells assessed as increase in Bax protein expression after 24 hrs by Western blot analysis; assay type: functional, cell-based; details: Homo sapiens
[31] = Cell cycle arrest in RBEC cells assessed as accumulation at G2/M phase after 24 hrs by flow cytometric analysis; assay type: ADME, cell-based; details: rat
[32] = Cell cycle arrest in human QBC939 cells assessed as accumulation at G2/M phase after 24 hrs by flow cytometric analysis; assay type: functional, cell-based
[33] = Induction of apoptosis in human QBC939 cells at 5 uM after 24 hrs by annexin V/propidium iodide staining based flow cytometry (reference value: 2.21%); assay type: functional
[34] = Induction of apoptosis in human QBC939 cells at 7.5 uM after 24 hrs by annexin V/propidium iodide staining based flow cytometry (reference value: 2.21%); assay type: functional
HUCCA [35] = assay: Induction of apoptosis in HUCCA cells after 24 hrs by annexin V/propidium iodide staining based flow cytometry; assay type: functional, cell-based; details: Homo sapiens
[36] = Induction of apoptosis in human QBC939 cells at 10 uM after 24 hrs by annexin V/propidium iodide staining based flow cytometry (reference value: 2.21%); assay type: functional
[37] = Induction of apoptosis in RBEC at 5 uM after 24 hrs by annexin V/propidium iodide staining based flow cytometry (reference value: 2.3%); details: rat
[38] = Decrease in Cdc2 expression in human QBC939 cells after 24 hrs by Western blot analysis; assay type: functional, cell-based
[39] = Increase in p53 expression in RBEC after 24 hrs by Western blot analysis; details: rat
[40] = Decrease in Cdc2 expression in HUCCA cells after 24 hrs by Western blot analysis; assay type: functional, cell-based; details: Homo sapiens
[41] = Cytotoxicity against human HL7702 cells assessed as decrease in cell viability after 24 hrs by MTT assay; assay type: functional, cell-based; details: L02, 24 h

C=CCc1cc(/C=C2\CCC/C(=C\c3ccc(O)c(CC=C)c3)C2=O)ccc1O
viability at 24 h, 20 µM [1]: < 50%

C=CCc1cc(/C=C2\CC/C(=C\c3ccc(O)c(CC=C)c3)C2=O)ccc1O
IC50 at 24 h [2]: 10.7 µM
Stability [3]: Stable

C=CCc1cc(/C=C2\CN(C(=O)c3ccccc3)C/C(=C\c3ccc(O)c(CC=C)c3)C2=O)ccc1O
viability at 24 h, 20 µM [1]: < 50%

C=CCc1cc(/C=C2\CN(CCC)C/C(=C\c3cc(OC)c(OC)cc3OC)C2=O)ccc1O
viability at 24 h, 20 µM [1]: < 50%

C=CCc1cc(/C=C2\CNC/C(=C\c3ccc(O)c(CC=C)c3)C2=O)ccc1O
viability at 24 h, 20 µM [1]: < 50%

C=CCc1cc(/C=C2\COC/C(=C\c3ccc(O)c(CC=C)c3)C2=O)ccc1O
IC50 at 24 h [2]: 15 µM
Stability [3]: Stable
viability at 24 h, 20 µM [1]: < 50%

C=CCc1cc(/C=C2\CN(C(C)C)C/C(=C\c3ccc(O)c(CC=C)c3)C2=O)ccc1O
viability at 24 h, 20 µM [1]: < 50%

C=CCc1cc(/C=C2\CN(C3CC3)C/C(=C\c3ccc(OC(C)(C)C)cc3)C2=O)ccc1O
viability at 24 h, 20 µM [1]: < 50%

COc1cc(/C=C/C(=O)CC(=O)/C=C/c2ccc(O)c(OC)c2)ccc1O [CURCUMIN]
Activity [4]: Non-Toxic
Activity [5]: Non-Toxic
Activity [6]: 21.7%
Activity [7]: 18.5%
degraded at 25 min ([3]; phosphate buffer, pH 7.4, read-out: Drug degradation): 50%
Activity [8]: Non-Toxic
Activity [9]: 27.6%

O=c1[nH]cc(F)c(=O)[nH]1 [FLUOROURACIL]
IC50 at 24 h [2]: 19.3 µM
IC50 [10]: 13.4 µM
IC50 [11]: 16.1 µM

C=CCc1cc(/C=C2\CN(C3CC3)C/C(=C\c3ccc(O)c(CC=C)c3)C2=O)ccc1O
IC50 at 24 h [2]: 14.4 µM
viability at 24 h, 20 µM [1]: < 50%

C=CCc1cc(/C=C2\CSC/C(=C\c3ccc(O)c(CC=C)c3)C2=O)ccc1O
IC50 at 24 h [2]: 8.1 to 8.9 µM
Activity (QBC939 [12]): Dose-dependent effect
Activity (HUCCA [13]): Dose-dependent effect
IC50 [10]: 8.7 µM
Activity [14]: 13.9%
Activity [15]: 19.4%
Activity [16]: 39.9%
Stability [3]: Stable
Activity [17]: Dose-dependent effect
Activity [18]: 31.8%
Activity [19]: Dose-dependent effect
Activity (QBC939 [20]): Dose-dependent effect
Activity (QBC939 [21]): Dose-dependent effect
Activity (HUCCA [22]): Dose-dependent effect
Activity [23]: Dose-dependent effect
IC50 at 24 h [24]: 9.8 µM
Activity [25]: Dose-dependent effect
IC50 [11]: 9.3 µM
Activity [26]: 41.6%
Activity (QBC939 [27]): Dose-dependent effect
Activity (HUCCA [28]): Dose-dependent effect
Activity [29]: Dose-dependent effect
Activity (HUCCA [30]): Dose-dependent effect
Activity [31]: Dose-dependent effect
Activity [32]: Dose-dependent effect
Activity [33]: 7.6%
viability at 24 h, 20 µM [1]: < 50%
Activity [34]: 15.8%
Activity (HUCCA [35]): Dose-dependent effect
Activity [36]: 38.6%
Activity [37]: 9.3%
Activity [38]: Dose-dependent effect
Activity [39]: Dose-dependent effect
Activity [40]: Dose-dependent effect
IC50 [41]: 9.7 µM

C=CCc1cc(/C=C2\CN(S(=O)(=O)CCC)C/C(=C\c3ccc(O)c(CC=C)c3)C2=O)ccc1O
viability at 24 h, 20 µM [1]: < 50%
